Biological target: T1, human PTH1 receptor (Homo sapiens, UniProt Q03431)
T1 sequence (Q03431 27-593): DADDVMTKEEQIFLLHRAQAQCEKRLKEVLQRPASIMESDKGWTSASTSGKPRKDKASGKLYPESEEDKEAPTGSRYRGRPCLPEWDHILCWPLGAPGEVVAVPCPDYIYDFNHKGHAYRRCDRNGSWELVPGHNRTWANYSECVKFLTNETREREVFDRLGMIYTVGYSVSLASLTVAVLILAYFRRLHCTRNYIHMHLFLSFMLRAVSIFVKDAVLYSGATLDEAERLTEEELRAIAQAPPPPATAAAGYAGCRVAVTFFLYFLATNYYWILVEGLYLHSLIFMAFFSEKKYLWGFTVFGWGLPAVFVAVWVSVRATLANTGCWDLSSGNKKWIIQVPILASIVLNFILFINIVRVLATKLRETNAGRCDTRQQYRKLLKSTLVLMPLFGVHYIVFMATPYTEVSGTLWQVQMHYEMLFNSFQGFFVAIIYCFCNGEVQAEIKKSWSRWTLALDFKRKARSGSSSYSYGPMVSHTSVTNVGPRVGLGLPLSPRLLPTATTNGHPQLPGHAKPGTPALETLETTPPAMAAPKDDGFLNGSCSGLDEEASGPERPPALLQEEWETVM
Test: In vitro cAMP signal activity in HKRK-B7 cells (LLC-PK1 cells overexpressing the human PTH1 receptor)
Format: cell-based
Conditions: HKRK-B7 cells; compound at 1×10^−3 M; cAMP produced as percentage of that produced by hPTH(1-34) at 100 nM

Compound | cAMP production activity (%)
O=C(Cc1c[nH]c2cccc(CCS(=O)(=O)N3CCC4(CC3)N=C(C3CCCCC3)NC4=O)c12)NCc1ccccc1 [Compound 420, N-Benzyl-2-{4-[2-(2-cyclohexyl-4-oxo-1,3,8-triaza-spiro[4.5]dec-1-ene-8-sulfonyl)-ethyl]-1H-indol-3-yl}-acetamide] | 31%
Cc1cc(N2C[C@H](CO)OC2=O)ccc1CCS(=O)(=O)N1CCC2(CC1)N=C(c1cccc(C(F)(F)F)c1)NC2=O [Compound 296, 8-{2-[4-((R)-5-hydroxymethyl-2-oxo-oxazolidin-3-yl)-2-methyl-phenyl]-ethanesulfonyl}-2-(3-trifluoromethyl-phenyl)-1,3,8-triaza-spiro[4.5]dec-1-en-4-one] | 65%
CC(=O)OC[C@H](CN(C(C)=O)c1ccc(CCS(=O)(=O)N2CCC3(CC2)N=C(c2ccc(C(F)(F)F)cc2)NC3=O)c(C)c1)OC(C)=O [Compound 151, acetic acid (S)-1-acetoxymethyl-2-[acetyl-(3-methyl-4-{2-[4-oxo-2-(4-trifluoromethyl-phenyl)-1,3,8-triaza-spiro[4.5]dec-1-ene-8-sulfonyl]-ethyl}-phenyl)-amino]-ethyl ester] | 53%
O=C1NC(c2cccc(OC(F)(F)F)c2)=NC12CCN(S(=O)(=O)CCc1ccccc1C(F)(F)F)CC2 [Compound 304, 2-(3-trifluoromethoxy-phenyl)-8-[2-(2-trifluoromethyl-phenyl)-ethanesulfonyl]-1,3,8-triaza-spiro[4.5]dec-1-en-4-one] | 47%
CCCCCCCCCC1=NC2(CCN(S(=O)(=O)CCc3c(C)cc(C(=O)N4CC[C@@H](O)C4)cc3C)CC2)C(=O)N1 [Compound 981, 8-{2-[4-((R)-3-hydroxy-pyrrolidine-1-carbonyl)-2,6-dimethyl-phenyl]-ethanesulfonyl}-2-nonyl-1,3,8-triaza-spiro[4.5]dec-1-en-4-one] | 106%
Cc1cc(C(=O)N2CCC(O)(CF)CC2)cc(C)c1CCS(=O)(=O)N1CCC2(CC1)N=C(c1ccc(C(F)(F)F)c(OCC(F)(F)C(F)F)c1)NC2=O [Compound 1279, 8-{2-[4-(4-fluoromethyl-4-hydroxy-piperidine-1-carbonyl)-2,6-dimethyl-phenyl]-ethanesulfonyl}-2-[3-(2,2,3,3-tetrafluoro-propoxy)-4-trifluoromethyl-phenyl]-1,3,8-triaza-spiro[4.5]dec-1-en-4-one] | 113%
Cc1cc(S(=O)(=O)NC2CCN(Cc3ccccc3)CC2)ccc1CCS(=O)(=O)N1CCC2(CC1)N=C(c1cccc(OC(F)(F)F)c1)NC2=O [Compound 848, N-(1-benzyl-piperidin-4-yl)-3-methyl-4-{2-[4-oxo-2-(3-trifluoromethoxy-phenyl)-1,3,8-triaza-spiro[4.5]dec-1-ene-8-sulfonyl]-ethyl}-benzenesulfonamide] | 77%
Cc1cc(C(=O)N(C)C)ccc1CCS(=O)(=O)N1CCC2(CC1)N=C(Cc1ccccc1)NC2=O [Compound 83, 4-[2-(2-benzyl-4-oxo-1,3,8-triaza-spiro[4.5]dec-1-ene-8-sulfonyl)-ethyl]-3,N,N-trimethyl-benzamide] | 41%
Cc1cccc(NCCO)c1/C=C/S(=O)(=O)N1CCC2(CC1)N=C(C1CCCCC1)NC2=O [Compound 200, 2-cyclohexyl-8-{(E)-2-[2-(2-hydroxy-ethylamino)-6-methyl-phenyl]-ethenesulfonyl}-1,3,8-triaza-spiro[4.5]dec-1-en-4-one] | 37%
CO[C@H]1CC[C@H](C2=NC3(CCN(S(=O)(=O)c4cccc(Cl)c4)CC3)C(=O)N2)CC1 [Compound 25, 8-(3-chloro-benzenesulfonyl)-2-(4-methoxy-cyclohexyl)-1,3,8-triaza-spiro[4.5]dec-1-en-4-one] | 18%
Cc1cc(C(=O)N2CCC(F)C2)ccc1CCS(=O)(=O)N1CCC2(CC1)N=C(c1cccc(C(F)(F)F)c1)NC2=O (stereo not shown) [Compound 378, 8-{2-[4-(3-fluoro-pyrrolidine-1-carbonyl)-2-methyl-phenyl]-ethanesulfonyl}-2-(3-trifluoromethyl-phenyl)-1,3,8-triaza-spiro[4.5]dec-1-en-4-one] | 60%
Cc1cc(C(=O)N2CCC(O)(CF)CC2)cc(C)c1/C=C/S(=O)(=O)N1CCC2(CC1)N=C(c1ccc(OC(C)(C)C(F)(F)F)c(C(F)(F)F)c1)NC2=O [Compound 1265, 8-{(E)-2-[4-(4-fluoromethyl-4-hydroxy-piperidine-1-carbonyl)-2,6-dimethyl-phenyl]-ethenesulfonyl}-2-[4-(2,2,2-trifluoro-1,1-dimethyl-ethoxy)-3-trifluoromethyl-phenyl]-1,3,8-triaza-spiro[4.5]dec-1-en-4-one] | 89%
O=C1NC(C2CCCCC2)=NC12CCN(S(=O)(=O)CCc1cccc3ccccc13)CC2 [Compound 61, 2-cyclohexyl-8-(2-naphthalen-1-yl-ethanesulfonyl)-1,3,8-triaza-spiro[4.5]dec-1-en-4-one] | 43%
Cc1cc(C2=NC3(CCN([S@TB17](=O)(=O)/C=C/c4c(C)cc(C(=O)N5CCC(C)(O)CC5)cc4C)CC3)C(=O)N2)ccc1F [Compound 1098, 2-(4-fluoro-3-methyl-phenyl)-8-{(E)-2-[4-(4-hydroxy-4-methyl-piperidine-1-carbonyl)-2,6-dimethyl-phenyl]-ethenesulfonyl}-1,3,8-triaza-spiro[4.5]dec-1-en-4-one] | 88%
O=C1NC(C2CCCCC2)=NC12CCN(S(=O)(=O)CCc1nccs1)CC2 [Compound 345, 2-Cyclohexyl-8-(2-thiazol-2-yl-ethanesulfonyl)-1,3,8-triaza-spiro[4.5]dec-1-en-4-one] | 21%
Cc1cc(N(C)C(N)=O)cc(C)c1/C=C/S(=O)(=O)N1CCC2(CC1)N=C(c1ccc(CCCC(F)(F)F)cc1)NC2=O [Compound 1088, 1-[3,5-Dimethyl-4-((E)-2-{4-oxo-2-[4-(4,4,4-trifluoro-butyl)-phenyl]-1,3,8-triaza-spiro[4.5]dec-1-ene-8-sulfonyl}-vinyl)-phenyl]-1-methyl-urea] | 95%
Cc1cc(N(C)C(N)=O)cc(C)c1CCS(=O)(=O)N1CCC2(CC1)N=C(C1CCC(C)CC1)NC2=O (stereo not shown) [Compound 470, 1-(3,5-Dimethyl-4-{2-[2-(4-methyl-cyclohexyl)-4-oxo-1,3,8-triaza-spiro[4.5]dec-1-ene-8-sulfonyl]-ethyl}-phenyl)-1-methyl-urea] | 90%
O=C1NC(Cc2ccccc2)=NC12CCN(S(=O)(=O)c1cccc(Cl)c1)CC2 [Compound 7, 2-benzyl-8-(3-chloro-benzenesulfonyl)-1,3,8-triaza-spiro[4.5]dec-1-en-4-one] | 13%
Cc1cc(N(C)C(N)=O)cc(C)c1/C=C/[S@TB3](=O)(=O)N1CCC2(CC1)N=C(CCCC/C=C/c1ccccc1)NC2=O [Compound 1120, 1-(3,5-dimethyl-4-{(E)-2-[4-oxo-2-((E)-6-phenyl-hex-5-enyl)-1,3,8-triaza-spiro[4.5]dec-1-ene-8-sulfonyl]-vinyl}-phenyl)-1-methyl-urea] | 124%
O=C1NC(C2CCCCC2)=NC12CCN(S(=O)(=O)CCc1cccc3c1ccn3C[C@H](O)[C@@H](O)CO)CC2 [Compound 1392, 2-Cyclohexyl-8-{2-[1-((2S,3S)-2,3,4-trihydroxy-butyl)-1H-indol-4-yl]-ethanesulfonyl}-1,3,8-triaza-spiro[4.5]dec-1-en-4-one] | 89%
Cc1cc2ccc1CCS(=O)(=O)N1CCC3(CC1)N=C(NC3=O)c1ccc(C(F)(F)F)c(c1)OCCCC=COCCN(C)C2=O [Compound 1431] | 15%
Cc1cc2ccc1CCS(=O)(=O)N1CCC3(CC1)N=C(NC3=O)c1cc(cc(C(F)(F)F)c1)OCCCCCCCCCCN(C)C2=O [Compound 1418] | 36%
CON(C)C(=O)c1cc(C)c(/C=C/S(=O)(=O)N2CCC3(CC2)N=C(C2CCC(C)CC2)NC3=O)c(C)c1 (stereo not shown) [Compound 998, N-Methoxy-3,5,N-trimethyl-4-{(E)-2-[2-(4-methyl-cyclohexyl)-4-oxo-1,3,8-triaza-spiro[4.5]dec-1-ene-8-sulfonyl]-vinyl}-benzamide] | 92%
Cc1noc(C)c1-c1ccccc1CCS(=O)(=O)N1CCC2(CC1)N=C(C1CCCCC1)NC2=O [Compound 338, 2-Cyclohexyl-8-{2-[2-(3,5-dimethyl-isoxazol-4-yl)-phenyl]-ethanesulfonyl}-1,3,8-triaza-spiro[4.5]dec-1-en-4-one] | 60%
Cc1cc(C(=O)N2CCC(C)(O)CC2)cc(C)c1/C=C/S(=O)(=O)N1CCC2(CC1)N=C(c1cccc(C(F)(F)C(F)(F)F)c1)NC2=O [Compound 1196, 8-{(E)-2-[4-(4-hydroxy-4-methyl-piperidine-1-carbonyl)-2,6-dimethyl-phenyl]-ethenesulfonyl}-2-(3-pentafluoroethyl-phenyl)-1,3,8-triaza-spiro[4.5]dec-1-en-4-one] | 76%
